Measured values published in ChEMBL document CHEMBL5365497, “Developing Novel Coumarin-Containing Azoles Antifungal Agents by the Scaffold Merging Strategy for Treating Azole-Resistant Candidiasis” (J Med Chem, 2023).
Values after ≈ are worked out from the molar mass of the structure shown. Active and inactive are the calls of the source. The calls are words filed in the database; no cut-off is given here.

What was measured:
Candida albicans [1] = assay: Antifungal activity against fluconazole-resistant Candida albicans 904 assessed as reduction in ALS3 expression at 16 ug/ml incubated for 12 hrs by RT-PCR analysis; assay type: functional, organism-based; conditions: dose 16.0 µg/ml
Candida albicans [2] = assay: Antifungal activity against Candida albicans SC5314 assessed as cell lysis at 16 ug/ml incubated for 24 hrs by TEM analysis; assay type: functional, organism-based; conditions: dose 16.0 µg/ml
Candida albicans [3] = assay: Antifungal activity against Candida albicans SC5314 assessed as fungal growth inhibition by CLSI based microdilution method; assay type: functional
Candida albicans [4] = assay: Antifungal activity against Candida albicans CPCC400616 assessed as fungal growth inhibition by CLSI based microdilution method; assay type: functional
[5] = Acute toxicity in fasted KM mouse assessed as body weight change at 1000 mg/kg administered via gavage measured for 7 days; assay type: organism-based; conditions: in vivo, po, 168 h, time 7 day
Candida tropicalis = assay: Antifungal activity against Candida tropicalis assessed as fungal growth inhibition by CLSI based microdilution method; assay type: functional
Candida albicans [6] = assay: Antifungal activity against fluconazole-resistant Candida albicans 904 assessed as decrease in CDR1 expression at 16 ug/ml measured after 16 hrs by RT-PCR analysis; assay type: functional, organism-based; conditions: dose 16.0 µg/ml
[7] = Subacute toxicity in male KM mouse assessed as focal infiltration of lymphocytes in kidney at 100 mg/kg administered via gavage daily for 7 days; assay type: organism-based; conditions: in vivo, po, 168 h, time 7 day
Pichia kudriavzevii = assay: Antifungal activity against Pichia kudriavzevii assessed as fungal growth inhibition by CLSI based microdilution method; assay type: functional
[8] = target: T1, Lanosterol 14-alpha demethylase (Candida albicans (strain SC5314 / ATCC MYA-2876) (Yeast), UniProt P10613); assay: Inhibition of CYP51 in Candida albicans SC5314 assessed as increase in obtusifoliol level at 0.03125 ug/ml incubated for 24 hrs by GC-MS analysis; conditions: at 0.03125 µg/mL
T1 sequence (P10613 whole entry): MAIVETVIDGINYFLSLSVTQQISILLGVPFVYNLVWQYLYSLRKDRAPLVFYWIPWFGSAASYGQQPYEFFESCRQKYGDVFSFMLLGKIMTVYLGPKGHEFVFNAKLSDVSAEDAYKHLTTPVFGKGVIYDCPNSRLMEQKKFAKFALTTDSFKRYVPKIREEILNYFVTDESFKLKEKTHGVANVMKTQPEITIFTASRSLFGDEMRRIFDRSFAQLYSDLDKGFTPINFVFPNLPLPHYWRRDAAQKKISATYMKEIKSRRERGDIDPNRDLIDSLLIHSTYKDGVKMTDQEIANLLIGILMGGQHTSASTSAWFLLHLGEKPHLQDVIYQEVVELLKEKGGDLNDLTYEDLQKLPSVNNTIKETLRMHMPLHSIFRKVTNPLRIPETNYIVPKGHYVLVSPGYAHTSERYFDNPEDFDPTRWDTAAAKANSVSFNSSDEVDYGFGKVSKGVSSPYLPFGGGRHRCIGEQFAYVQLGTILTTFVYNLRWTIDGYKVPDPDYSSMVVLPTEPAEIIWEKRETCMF

Candida albicans [9] = assay: Antifungal activity against fluconazole-resistant Candida albicans 904 assessed as reduction in EFG1 expression at 16 ug/ml incubated for 12 hrs by RT-PCR analysis; assay type: functional, organism-based; conditions: dose 16.0 µg/ml
[10] = target: T1, Lanosterol 14-alpha demethylase; assay: Inhibition of CYP51 in Candida albicans SC5314 assessed as ergosterol level at 0.03125 ug/ml incubated for 24 hrs by GC-MS analysis (reference value: 97.58 %); design: scale not given: the % may be the effect or the level left; conditions: at 0.03125 µg/mL
Candida albicans [11] = assay: Antifungal activity against fluconazole-resistant Candida albicans 904 assessed as inhibition of yeast to hypha morphological transition at 16 ug/ml incubated for 4 hrs by inverted microscopy; assay type: functional, organism-based; conditions: dose 16.0 µg/ml
[12] = Subacute toxicity in female KM mouse assessed as kidney damage at 100 mg/kg administered via gavage daily for 14 days; assay type: organism-based; conditions: in vivo, po, 336 h, time 14 day
Candida albicans [13] = assay: Antifungal activity against Candida albicans SC5314 assessed as leakage of endogenous material within cells at 16 ug/ml incubated for 24 hrs by TEM analysis; assay type: functional, organism-based; conditions: dose 16.0 µg/ml
[14] = Cytotoxicity against human MRC5 cells assessed as cell growth inhibition by MTT assay; assay type: toxicity, cell-based
[15] = target: T1, Lanosterol 14-alpha demethylase; assay: Inhibition of CYP51 in Candida albicans SC5314 assessed as increase in lanosterol level at 0.03125 ug/ml incubated for 24 hrs by GC-MS analysis; conditions: at 0.03125 µg/mL
Nakaseomyces glabratus = assay: Antifungal activity against Candida glabrata assessed as fungal growth inhibition by CLSI based microdilution method; assay type: functional
Candida albicans [16] = assay: Induction of ROS production in fluconazole-resistant Candida albicans 904 at 64 ug/ml incubated for 30 mins by fluorescence microscopy; assay type: functional, organism-based; conditions: dose 64.0 µg/ml
Candida albicans [17] = assay: Antifungal activity against Candida albicans CPCC400616 assessed as reduction in ALS3 expression at 2 ug/ml incubated for 12 hrs by RT-PCR analysis; assay type: functional, organism-based; conditions: dose 2.0 µg/ml
Candida albicans [18] = assay: Antifungal activity against fluconazole-resistant Candida albicans CaR assessed as fungal growth inhibition by CLSI based microdilution method; assay type: functional
Candida parapsilosis = assay: Antifungal activity against Candida parapsilosis assessed as fungal growth inhibition by CLSI based microdilution method; assay type: functional; conditions: Lodderomyces parapsilosis
[19] = Subacute toxicity in KM mouse assessed as liver damage at 100 mg/kg administered via gavage daily for 7 days; assay type: organism-based; conditions: in vivo, po, 168 h, time 7 day
Candida albicans [20] = assay: Antifungal activity against Candida albicans CPCC400616 assessed as reduction in TEC1 expression at 2 ug/ml incubated for 12 hrs by RT-PCR analysis; assay type: functional, organism-based; conditions: dose 2.0 µg/ml
Candida albicans [21] = assay: Antifungal activity against fluconazole-resistant Candida albicans 904 assessed as fungal growth inhibition measured for 48 hrs by CLSI based microdilution method; assay type: functional
[22] = Subacute toxicity in KM mouse assessed as mortality at 100 mg/kg administered via gavage daily for 14 days; assay type: organism-based; conditions: in vivo, po, 336 h, time 14 day
Candida albicans [23] = assay: Antifungal activity against fluconazole-resistant Candida albicans 904 assessed as fungal growth inhibition by CLSI based microdilution method; assay type: functional
[24] = Stability in mouse plasma assessed as compound remaining at 1 uM measured for 180 mins by LC-MS/MS analysis; assay type: ADME, cell-free; conditions: read-out: Stability
[25] = Subacute toxicity in female KM mouse assessed as kidney damage at 100 mg/kg administered via gavage daily for 7 days; assay type: organism-based; conditions: in vivo, po, 168 h, time 7 day
Candida albicans [26] = assay: Antifungal activity against Candida albicans SC5314 assessed as destruction of cell membrane at 16 ug/ml incubated for 24 hrs by TEM analysis; assay type: functional, organism-based; conditions: dose 16.0 µg/ml
[27] = Cytotoxicity against mouse J774.A1 cells assessed as cell growth inhibition by MTT assay; assay type: toxicity, cell-based
Candida albicans [28] = assay: Antifungal activity against fluconazole-resistant Candida albicans 904 assessed as decrease in MDR1 expression at 16 ug/ml measured after 16 hrs by RT-PCR analysis; assay type: functional, organism-based; conditions: dose 16.0 µg/ml
Candida albicans [29] = assay: Antibiofilm activity against Candida albicans CPCC400616 incubated for 24 hrs by XTT reduction assay; assay type: functional, organism-based; conditions: dose <= 128.0 µg/ml
[30] = Subacute toxicity in male KM mouse assessed as kidney damage at 100 mg/kg administered via gavage daily for 14 days; assay type: organism-based; conditions: in vivo, po, 336 h, time 14 day
[31] = Metabolic stability in mouse liver microsomes assessed as half life incubated for 5 to 60 mins by LC-MS/MS analysis; assay type: ADME, Microsome; conditions: time 5-60 min
Candida albicans [32] = assay: Antifungal activity against fluconazole-resistant Candida albicans 904 assessed as decrease in CDR2 expression at 16 ug/ml measured after 16 hrs by RT-PCR analysis; assay type: functional, organism-based; conditions: dose 16.0 µg/ml
[33] = Subacute toxicity in KM mouse assessed as liver inflammation at 100 mg/kg administered via gavage daily for 7 days; assay type: organism-based; conditions: in vivo, po, 168 h, time 7 day
Candida albicans [34] = assay: Antifungal activity against fluconazole-resistant Candida albicans 901 assessed as fungal growth inhibition by CLSI based microdilution method; assay type: functional
Candida albicans [35] = assay: Antifungal activity against fluconazole-resistant Candida albicans 904 infected in ICR mouse assessed as reduction in fungal kidney burden by measuring CFU administered intraperitoneally measured after 5 days; assay type: functional, organism-based; conditions: dose 0.6 mg/kg, route ip, time 5.0 day
Candida albicans [36] = assay: Antifungal activity against Candida albicans CPCC400616 assessed as reduction in EFG1 expression at 2 ug/ml incubated for 12 hrs by RT-PCR analysis; assay type: functional, organism-based; conditions: dose 2.0 µg/ml
[37] = Stability in mouse plasma assessed as half life at 1 uM measured for 180 mins by LC-MS/MS analysis; assay type: ADME, cell-free
Candida albicans [38] = assay: Antifungal activity against Candida albicans CPCC400616 assessed as inhibition of yeast to hypha morphological transition at 2 ug/ml incubated for 4 hrs by inverted microscopy; assay type: functional, organism-based; conditions: dose 2.0 µg/ml

SMILES: O=c1ccc2ccc(COC(Cn3ccnc3)c3ccc(Cl)cc3Cl)cc2o1 (configuration not stated)
- Activity (Candida albicans [1]): Active
- Activity (Candida albicans [2]): Active
- MIC (Candida albicans [3]): 0.03 µg/mL (≈ 0.0722 µM)
- MIC (Candida albicans [4]): 0.06 µg/mL (≈ 0.144 µM)
- Activity [5]: Non-Toxic
- MIC (Candida tropicalis): 0.25 µg/mL (≈ 0.602 µM)
- Activity (Candida albicans [6]): Active
- Activity [7]: Toxic
- MIC (Pichia kudriavzevii): 2 µg/mL (≈ 4.82 µM)
- inhibition (INH) [8]: Active
- Activity (Candida albicans [9]): Active
- Activity [10]: 1.54%
- inhibition (Candida albicans [11]): Active
- Activity [12]: Non-Toxic
- Activity (Candida albicans [13]): Active
- IC50 [14]: 24.4 µM
- inhibition (INH) [15]: Active
- MIC (Nakaseomyces glabratus): 0.5 µg/mL (≈ 1.2 µM)
- Activity (Candida albicans [16]): Active
- Activity (Candida albicans [17]): Active
- MIC (Candida albicans [18]): 1 µg/mL (≈ 2.41 µM)
- MIC (Candida parapsilosis): 0.5 µg/mL (≈ 1.2 µM)
- Activity [19]: Toxic
- Activity (Candida albicans [20]): Active
- MFC (Candida albicans [21]): 8 µg/mL (≈ 19.3 µM)
- Activity [22]: Non-Toxic
- MIC (Candida albicans [23]): 1 µg/mL (≈ 2.41 µM)
- remaining at 3 h, 1 µM [24]: 103%
- Activity [25]: Toxic
- Activity (Candida albicans [26]): Active
- IC50 [27]: 24.4 µM
- Activity (Candida albicans [28]): Active
- Activity (Candida albicans [29]): Dose-Dependent Effect
- Activity [30]: Toxic
- half-life [31]: 15.2 min
- Activity (Candida albicans [32]): Active
- Activity [33]: Toxic
- MIC (Candida albicans [34]): 4 µg/mL (≈ 9.63 µM)
- Activity (Candida albicans [35]): Dose-Dependent Effect
- Activity (Candida albicans [36]): Active
- half-life at 1 µM [37]: > 360 min
- inhibition (Candida albicans [38]): Active
